# Measured values from article PMC11818225, “Multifaceted Sulfonamide-Derived Thiosemicarbazones: Combining Metal Chelation and Carbonic Anhydrases Inhibition in Anticancer Therapy” (International Journal of Molecular Sciences, 2025).
# Tests used:
# [1] = test system: A549 (non-small cell lung); assay: Antiproliferative SBR assay (NCI protocol), A549; assay type: cell-based, human; conditions: 48 h exposure, n = 3, mean ± SD
# Excerpt: (§1) The latter two represent multidrug-resistant cell lines.
# HBL-100 (breast) = assay: Antiproliferative SBR assay (NCI protocol), HBL-100; assay type: cell-based, human; conditions: 48 h exposure, n = 3, mean ± SD
# Excerpt: as §1
# WiDr (colon) = assay: Antiproliferative SBR assay (NCI protocol), WiDr; assay type: cell-based, human; conditions: 48 h exposure, n = 3, mean ± SD, multidrug-resistant line
# Excerpt: as §1
# T-47D (breast) = assay: Antiproliferative SBR assay (NCI protocol), T-47D; assay type: cell-based, human; conditions: 48 h exposure, n = 3, mean ± SD, multidrug-resistant line
# Excerpt: as §1
# human CA I = human CA I (Homo sapiens, UniProt P00915); assay: Stopped-flow CO2 hydrase assay, CA I
# human CA I, sequence (P00915 whole entry): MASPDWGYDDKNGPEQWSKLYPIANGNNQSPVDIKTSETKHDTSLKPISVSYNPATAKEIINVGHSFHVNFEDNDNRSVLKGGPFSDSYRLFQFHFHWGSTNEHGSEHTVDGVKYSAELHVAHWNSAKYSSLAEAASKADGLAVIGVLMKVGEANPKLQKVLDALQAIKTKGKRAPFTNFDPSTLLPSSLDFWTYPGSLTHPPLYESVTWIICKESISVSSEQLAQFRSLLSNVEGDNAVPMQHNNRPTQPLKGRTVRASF
# human CA XII = human CA XII (Homo sapiens, UniProt O43570); assay: Stopped-flow CO2 hydrase assay, CA XII; conditions: for Selectivity Ratio I/XII: Ki CA I / Ki CA XII; for Selectivity Ratio II/XII: Ki CA II / Ki CA XII
# human CA XII, sequence (O43570 25-354): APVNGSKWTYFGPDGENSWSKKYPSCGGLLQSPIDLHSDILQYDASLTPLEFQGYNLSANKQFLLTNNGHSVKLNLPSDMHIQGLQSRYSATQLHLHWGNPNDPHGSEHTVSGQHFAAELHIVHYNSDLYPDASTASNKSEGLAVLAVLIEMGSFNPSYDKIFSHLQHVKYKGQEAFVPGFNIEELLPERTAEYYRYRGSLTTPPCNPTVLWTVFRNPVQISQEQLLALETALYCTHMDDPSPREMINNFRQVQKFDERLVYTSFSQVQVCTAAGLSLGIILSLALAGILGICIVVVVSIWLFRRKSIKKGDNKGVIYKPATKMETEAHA
# [2] = test system: SW1573 (non-small cell lung)
# Experimental: The potential antiproliferative activity of sulfonamides synthesized in this study was evaluated in vitro using the SBR assay, following the US NCI protocol. A panel of six tumor cell lines was employed: A549 (non-small cell lung), HBL-100 (breast), HeLa (cervix), SW1573 (non-small cell lung), T-47D (breast), and WiDr (colon). The latter two represent multidrug-resistant cell lines.
# Cells were maintained in culture in 60 mm cell culture dishes in growth medium (10 mL) and passaged twice weekly.
# The antiproliferative activity of compounds was tested using our implementation of the protocol of the National Cancer Institute (NCI) of the USA. The following seeding densities (cells per well) were used: 2500 (A549, HBL-100, HeLa, and SW1573) and 5000 (T-47D and WiDr). Stock solutions of inhibitors (40 mM) were prepared in pure DMSO (400 times the maximum test concentration).
# HeLa (cervix) = assay: Antiproliferative SBR assay (NCI protocol), HeLa; assay type: cell-based, human; conditions: 48 h exposure, n = 3, mean ± SD
# Excerpt: as §1
# human CA IX = human CA IX (Homo sapiens, UniProt Q16790); assay: Stopped-flow CO2 hydrase assay, CA IX; conditions: for Selectivity Ratio I/IX: Ki CA I / Ki CA IX; for Selectivity Ratio II/IX: Ki CA II / Ki CA IX
# human CA II = human CA II (Homo sapiens, UniProt P00918); assay: Stopped-flow CO2 hydrase assay, CA II
Compound,"GI50 ([1]; Homo sapiens, A549)","GI50 (HBL-100 (breast); Homo sapiens, HBL-100)","GI50 (WiDr (colon); Homo sapiens, WiDr)","GI50 (T-47D (breast); Homo sapiens, T47D)",Ki (human CA I),Ki (human CA XII),Selectivity Ratio I/XII (human CA XII),Selectivity Ratio II/XII (human CA XII),GI50 [2],"GI50 (HeLa (cervix); Homo sapiens, HeLa)",Ki (human CA IX),Selectivity Ratio I/IX (human CA IX),Selectivity Ratio II/IX (human CA IX),Ki (human CA II),GI50 [1],GI50 (HBL-100 (breast)),GI50 (WiDr (colon)),GI50 (T-47D (breast)),GI50 (HeLa (cervix))
"NNC(=S)Nc1cccc(S(N)(=O)=O)c1 [Compound 3b, 4-N-(3′-Sulfonamidophenyl)-3-thiosemicarbazide]",> 100 µM,> 100 µM,> 100 µM,> 100 µM,1.46 µM,0.116 µM,12.6,3.8,> 100 µM,> 100 µM,0.185 µM,7.9,2.4,0.439 µM,–,–,–,–,–
"COc1ccc(/C=N/NC(=S)Nc2ccc(S(N)(=O)=O)cc2)cc1 [Compound 4b, 1-(4′-Methoxyphenylmethylene)-4-(4″-sulfonamidophenyl)-3-thiosemicarbazone]",> 100 µM,> 100 µM,> 100 µM,> 100 µM,–,–,–,–,> 100 µM,64 ± 23 µM,–,–,–,–,–,–,–,–,–
"COc1ccc(/C=N/NC(=S)NCCc2ccc(S(N)(=O)=O)cc2)cc1 [Compound 4m, 1-(4′-Methoxyphenylmethylene)-4-[2″-(4‴-sulfonamido)phenyl]ethyl-3-thiosemicarbazone]",97 ± 4 µM,> 100 µM,> 100 µM,> 100 µM,3.48 µM,0.035 µM,99.4,9.2,> 100 µM,> 100 µM,0.164 µM,21.2,2.0,0.321 µM,–,–,–,–,–
"NNC(=S)NCCc1ccc(S(N)(=O)=O)cc1 [Compound 3c, 4-N-[2′-(4″-Sulfonamido)phenyl]ethyl-3-thiosemicarbazide]",> 100 µM,> 100 µM,> 100 µM,> 100 µM,0.079 µM,0.00502 µM,15.7,1.7,> 100 µM,> 100 µM,0.013 µM,6.1,0.65,0.00851 µM,–,–,–,–,–
"NS(=O)(=O)c1ccc(NC(=S)N/N=C/c2ccc([N+](=O)[O-])cc2)cc1 [Compound 4f, 1-(4′-Nitrophenylmethylene)-4-(4″-sulfonamidophenyl)-3-thiosemicarbazone]",> 100 µM,> 100 µM,> 100 µM,> 100 µM,–,–,–,–,> 100 µM,> 100 µM,–,–,–,–,–,–,–,–,–
"NS(=O)(=O)c1cccc(NC(=S)N/N=C/c2ccc(F)cc2)c1 [Compound 4i, 1-(4′-Fluorophenylmethylene)-4-(3″-sulfonamidophenyl)-3-thiosemicarbazone]",83 ± 16 µM,> 100 µM,79 ± 29 µM,> 100 µM,–,–,–,–,> 100 µM,> 100 µM,–,–,–,–,–,–,–,–,–
"NNC(=S)Nc1ccc(S(N)(=O)=O)cc1 [Compound 3a, 4-N-(4′-Sulfonamidophenyl)-3-thiosemicarbazide]",> 100 µM,> 100 µM,> 100 µM,> 100 µM,–,–,–,–,> 100 µM,> 100 µM,–,–,–,–,–,–,–,–,–
"[NH2][Pt]([NH2])([Cl])[Cl] [CDDP, cisplatin, reference compound]",–,–,–,–,–,–,–,–,2.7 ± 0.4 µM,–,–,–,–,–,4.9 ± 0.2 µM,1.9 ± 0.2 µM,26 ± 4 µM,17 ± 3 µM,1.8 ± 0.5 µM
"NS(=O)(=O)c1cccc(NC(=S)N/N=C/c2ccc(Br)cc2)c1 [Compound 4k, 1-(4′-Bromophenylmethylene)-4-(3″-sulfonamidophenyl)-3-thiosemicarbazone]",19 ± 6 µM,40 ± 1 µM,> 100 µM,> 100 µM,–,–,–,–,46 ± 1 µM,45 ± 5 µM,–,–,–,–,–,–,–,–,–
"NS(=O)(=O)c1ccc(CCNC(=S)N/N=C/c2ccc(Br)cc2)cc1 [Compound 4p, 1-(4′-Bromophenylmethylene)-4-[2″-(4‴-sulfonamido)phenyl]ethyl-3-thiosemicarbazone]",21 ± 4 µM,42 ± 8 µM,58 ± 9 µM,37 ± 8 µM,6.09 µM,0.123 µM,49.5,6.6,53 ± 17 µM,31 ± 9 µM,0.499 µM,12.2,1.6,0.813 µM,–,–,–,–,–
"NS(=O)(=O)c1cccc(NC(=S)N/N=C/c2ccc(Cl)cc2)c1 [Compound 4j, 1-(4′-Chlorophenylmethylene)-4-(3″-sulfonamidophenyl)-3-thiosemicarbazone]",22 ± 4 µM,42 ± 15 µM,24 ± 8 µM,59 ± 16 µM,–,–,–,–,36 ± 4 µM,38 ± 3 µM,–,–,–,–,–,–,–,–,–
"NS(=O)(=O)c1ccc(CCNC(=S)N/N=C/c2ccc(F)cc2)cc1 [Compound 4n, 1-(4′-Fluorophenylmethylene)-4-[2″-(4‴-sulfonamido)phenyl]ethyl-3-thiosemicarbazone]",> 100 µM,> 100 µM,> 100 µM,> 100 µM,2.49 µM,0.0485 µM,51.2,12.2,> 100 µM,> 100 µM,0.3 µM,8.3,2.0,0.59 µM,–,–,–,–,–
"NS(=O)(=O)c1ccc(NC(=S)N/N=C/c2ccc(Cl)cc2)cc1 [Compound 4d, 1-(4′-Chlorophenylmethylene)-4-(4″-sulfonamidophenyl)-3-thiosemicarbazone]",> 100 µM,> 100 µM,> 100 µM,> 100 µM,–,–,–,–,> 100 µM,> 100 µM,–,–,–,–,–,–,–,–,–
"NS(=O)(=O)c1ccc(NC(=S)N/N=C/c2ccc(F)cc2)cc1 [Compound 4c, 1-(4′-Fluorophenylmethylene)-4-(4″-sulfonamidophenyl)-3-thiosemicarbazone]",25 ± 5 µM,28 ± 1 µM,24 ± 4 µM,17 ± 1 µM,–,–,–,–,6 ± 0.4 µM,7.9 ± 1.1 µM,–,–,–,–,–,–,–,–,–
"COc1ccc(/C=N/NC(=S)Nc2cccc(S(N)(=O)=O)c2)cc1 [Compound 4h, 1-(4′-Methoxyphenylmethylene)-4-(3″-sulfonamidophenyl)-3-thiosemicarbazone]",> 100 µM,> 100 µM,> 100 µM,> 100 µM,–,–,–,–,> 100 µM,> 100 µM,–,–,–,–,–,–,–,–,–
"NS(=O)(=O)c1ccc(NC(=S)N/N=C/c2ccc(Br)cc2)cc1 [Compound 4e, 1-(4′-Bromophenylmethylene)-4-(4″-sulfonamidophenyl)-3-thiosemicarbazone]",23 ± 6 µM,24 ± 2 µM,62 ± 12 µM,36 ± 1 µM,–,–,–,–,22 ± 1 µM,18 ± 1 µM,–,–,–,–,–,–,–,–,–
"NS(=O)(=O)c1cccc(NC(=S)N/N=C/c2ccccc2)c1 [Compound 4g, 1-Phenylmethylene-4-(3″-sulfonamidophenyl)-3-thiosemicarbazone]",51 ± 10 µM,> 100 µM,62 ± 10 µM,83 ± 10 µM,–,–,–,–,70 ± 1 µM,61 ± 6 µM,–,–,–,–,–,–,–,–,–
"NS(=O)(=O)c1ccc(CCNC(=S)N/N=C/c2ccccc2)cc1 [Compound 4l, 1-Phenylmethylene-4-[2′-(4″-sulfonamido)phenyl]ethyl-3-thiosemicarbazone]",90 ± 14 µM,> 100 µM,90 ± 14 µM,> 100 µM,0.568 µM,0.00912 µM,62.3,7.7,99 ± 1 µM,> 100 µM,0.0308 µM,18.4,2.3,0.0702 µM,–,–,–,–,–
"NS(=O)(=O)c1ccc(CCNC(=S)N/N=C/c2ccc(Cl)cc2)cc1 [Compound 4o, 1-(4′-Chlorophenylmethylene)-4-[2″-(4‴-sulfonamido)pheny]ethyl-3-thiosemicarbazone]",62 ± 6 µM,76 ± 32 µM,> 100 µM,> 100 µM,6.22 µM,0.143 µM,43.4,–,73 ± 38 µM,45 ± 16 µM,0.408 µM,15.2,1.9,0.773 µM,–,–,–,–,–
"NS(=O)(=O)c1ccc(CCNC(=S)N/N=C/c2ccccn2)cc1 [Compound 5c, 1-(Pyridin-2′-ylmethylene)-4-[2″-(4‴-sulfonamidophenyl)]ethyl-3-thiosemicarbazone]",37 ± 11 µM,> 100 µM,> 100 µM,> 100 µM,0.27 µM,0.0093 µM,29.0,9.0,> 100 µM,> 100 µM,0.0285 µM,9.5,2.9,0.0839 µM,–,–,–,–,–
"O=c1[nH]cc(F)c(=O)[nH]1 [5-Fluorouracil, reference compound]",2.2 ± 0.3 µM,4.4 ± 0.7 µM,49 ± 7 µM,43 ± 16 µM,–,–,–,–,3.3 ± 1.2 µM,16 ± 5 µM,–,–,–,–,–,–,–,–,–
